Here are results for 6 molecules from patent publication US20240150396A1 (The Texas A&M University System, priority 2021, published 2024).

The subject of data set [1] is CYPs 3A4, 2D6 and 2C9. The settings on record: human, 4 h, 0.5 mM, pH 7.5.
For data set [2], the system named is T. b. brucei bloodstream forms. Kind of data set: Growth of axenic cultures of T. b. brucei bloodstream forms (BSFs).
Protocol: Selected cruzain inhibitors were evaluated in axenic cell cultures of T. b. brucei and T. cruzi. Procyclic trypomastigotes of T. b. brucei (ATCC PRA-381) were grown in the SDM-79 medium at 26° C., and bloodstream forms (ATCC PRA-383) were grown at 37° C. in the HMI-9 medium at 5% C02. […] Both forms of T. b. brucei and T. cruzi were grown in media containing 10% fetal bovine serum (FBS) and penicillin/streptomycin (50 U mL^−1). […] Control samples contained equal amounts of DMSO. T. b. brucei and T. cruzi (5 mL in flask cultures) were seeded at ˜3×10^6 cells and diluted daily, maintaining a mid-log growth phase for up to 120 h. […] After each cell dilution, fresh compound or an equal volume of DMSO (control samples) was supplemented into the cultures, while maintaining a constant concentration of each inhibitor. Cell counts were scored using a Z2 Coulter Counter.
In vitro Cell Assays. Bloodstream form T. b. brucei strain SM427 was grown in HM1-9 medium that included fetal bovine serum (10%) and antibiotics (100 U/mL penicillin-streptomycin, Gibco™). Inhibitors dissolved in 100% (v/v) DMSO stock solutions were added at final concentrations of 0.5-20 μM (final concentrations of DMSO were <1% (v/v)). T. b. brucei were seeded at ˜1×10^6 cells at 37° C., and diluted daily to maintain a log phase of growth for up to 96 h. […] After each dilution, the cell cultures were supplemented with inhibitor or DMSO (control) to keep concentrations constant. Cell density was determined and graphed as previously reported.^36 Trypanosomes were quantified using a Z2 Coulter Counter, and values of EC50 were determined after 3-4 days of treatment by the interpolation method of Huber and Koella.^37
Data set [3] addresses cruzain (Trypanosoma cruzi, UniProt P25779). Nature of the data set: biochemical. Particulars: for Ki: pH 7.5. In a few lines: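 Fluorogenic assay at 25 °C following AMC release (ex 360/em 460 nm), with typically 0.2 nM cruzain and 10% DMSO, at pH 7.5 or 5.5 buffer with 5 mM DTT.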
For data set [4], the system named is SARS-CoV-2 in Vero E6 cells. Nature of the data set: Anti-CoV-2 activity in Vero E6 cells. The format is cell-based.
The subject of data set [5] is SARS-CoV-2 in A549/ACE2 cells. It is filed as cell-based. Particulars: read-out: Anti-CoV-2 EC50 A549/ACE2 Cells.
Data set [6] concerns CYPs 3A4, 2D6 and 2C9. Nature of the data set: Stability of acetal prodrugs to CYPs. The settings on record: CYP 3A4, 2D6, 2C9, NADPH-regenerating system, up to 4 h.
Data set [7] is described as follows: Detection of aldehyde content using phenylhydrazine. Particulars: 1 mM phenylhydrazine. The format is physicochemical. As to the method: Detection of Aldehyde Content Using Phenylhydrazine. In a 96-well clear microplate, compounds 52 and 36 in DMSO solutions, or pure DMSO as a control, were diluted into the above NMR buffer without addition of DTT to make 250 μL-samples, each containing 0.2 mM of compounds and 10% DMSO (v/v). Upon addition of 1M phenylhydrazine (0.25 μL), the formation of phenylhydrazone in these wells were continuously monitored for 2 hours by measuring UV absorbance at the maximal wavelength of 282 nm.

Data set [8] relates to T. cruzi (Ca-I/72) in C2C12 murine cardiomyoblasts. Kind of data set: T. cruzi-infected murine cardiomyoblasts (C2C12). The format is cell-based, Trypanosoma cruzi. An outline of the steps: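 Infected-host-cell imaging assay: inhibitor, 3-fold dilutions topping at 10 μM, was added to C2C12 murine cardiomyoblasts infected with 10^3 or 10^4 Ca-I/72 parasites for 2 days at 37° C. DAPI-stained fixed wells were imaged to count parasites and host cells separately, yielding antiparasitic EC50 and cytotoxic CC50.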

For data set [9], the system named is T. b. brucei procyclic forms. Kind of data set: Growth of axenic cultures of T. b. brucei procyclic forms (PCFs). It is filed as cell-based, Trypanosoma brucei brucei. Particulars: axenic culture; read-out: EC50 T. b. brucei PCF.
For data set [10], the system named is human dermal fibroblasts. Nature of the data set: Human cell toxicity, resazurin viability. The format is cell-based. In a few lines:
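Primary human dermal fibroblasts, 2400 cells/well, exposed in duplicate to inhibitors at final 0.001-0.1 mM in 1% DMSO (1% DMSO control) for 48 h at 37 °C. Resazurin then added and viability read by fluorescence (544/590 nm) after further 24 h.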
A general note: Alamar Blue is a resazurin reagent that responds to reducing activity.

For data set [11], the system named is C2C12 mouse cardiomyoblast cell line. Kind of data set: Host cell cytotoxicity in the T. cruzi infection model. It is filed as cell-based. The settings on record: host cardiomyoblasts; read-out: C2C12 Cytotoxicity CC50. In a few lines: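 C2C12 murine cardiomyoblasts infected with T. cruzi were incubated with compound 48 h at 37 °C, fixed in 2% PFA and stained with 5 μg/ml DAPI. Automated microscopy imaging quantified host cells and parasites separately; host cytotoxicity derived as CC50.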

A short description of data set [12]: Thiolation of inhibitors with glutathione, LCMS. The settings on record: 1 mM glutathione, 0.5 mM compound, Tris pH 8.0, 10% DMSO, room temperature. The format is physicochemical. Here is the method: Samples were analyzed by HPLC-MS (as described above) by injecting 0.01 mL aliquots onto a Luna […] C18(2) 100 Å, 4.6 mm, 50 mm column (Phenomenex) using the HPLC method described in the chemistry section at 0-6 h time points. […] Integration of the chromatographic peaks of the inhibitors and their GSH adducts at each time point was used to determine the rate of GSH adduct formation.

Data set [13] has as its target human cathepsin S (Homo sapiens (Human), UniProt P25774). The settings on record: Ref. 32; read-out: apparent IC50 Human Cathepsin S; cited from earlier work.
The test system of data set [14] is T. cruzi epimastigotes (strain Y). The settings on record: Ndao et al. (2014), read-out: trypanocidal activity EC50; cited from earlier work.
For data set [15] the test system is unchanged. Kind of data set: Growth of axenic cultures of T. cruzi epimastigotes. The settings on record: epimastigotes.
Data set [16] deals with T. cruzi (Ca-I/72) in C2C12 murine cardiomyoblasts. Particulars: antichagasic activity, Ref. 55; cited from earlier work.
Data set [17] has as its system T. b. brucei bloodstream forms. The settings on record: Ref. 25; read-out: EC50 in T. b. brucei BSFs; cited from earlier work.
The mark [18] stands for this setting: read-out: EC50 T. b. brucei BSF, axenic culture.
Setting [19] is: obtained >10 minutes following initiation of reaction by addition of enzyme, read-out: Ki* Cruzain.

“And” between values parts separate entries of the source, which are not always exact repeats. Identical values can stand only once. Like-named read-outs stand apart in the source and are kept apart here. A value given as a limit tells only on which side of the number the result lay.

cruzain, sequence (P25779 123-467 limits assumed): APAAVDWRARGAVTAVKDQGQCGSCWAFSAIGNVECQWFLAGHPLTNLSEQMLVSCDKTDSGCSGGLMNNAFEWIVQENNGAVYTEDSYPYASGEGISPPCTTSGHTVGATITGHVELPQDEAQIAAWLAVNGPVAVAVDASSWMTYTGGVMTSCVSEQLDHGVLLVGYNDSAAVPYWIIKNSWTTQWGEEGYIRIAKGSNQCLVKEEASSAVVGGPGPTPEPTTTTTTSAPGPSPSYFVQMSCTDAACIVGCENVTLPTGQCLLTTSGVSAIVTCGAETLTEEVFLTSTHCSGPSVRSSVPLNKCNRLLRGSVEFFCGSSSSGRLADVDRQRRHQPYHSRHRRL
human cathepsin S, sequence (P25774 115-331): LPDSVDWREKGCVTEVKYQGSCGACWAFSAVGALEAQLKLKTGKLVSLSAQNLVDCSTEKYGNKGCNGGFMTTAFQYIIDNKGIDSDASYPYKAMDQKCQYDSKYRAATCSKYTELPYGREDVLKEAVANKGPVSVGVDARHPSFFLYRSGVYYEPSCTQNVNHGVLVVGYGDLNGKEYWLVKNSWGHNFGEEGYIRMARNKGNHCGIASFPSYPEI

With `CCOC1Oc2ccccc2C[C@@H]1NC(=O)[C@H](Cc1ccccc1)NC(=O)N1CCN(C)CC1` (stereo partly drawn) [Compound 40, N-((2S)-1-(((3S)-2-ethoxychroman-3-yl)amino)-1-oxo-3-phenylpropan-2-yl)-4-methylpiperazine-1-carboxamide], in data set [1], the “transformation to 36 by CYPs” value was “no transformation to 36 was observed”. In addition, the EC50 is 11 to 14 µM in data set [2] (Trypanosoma brucei, read-out: EC50 T. b. brucei BSF, axenic culture) and 12 ± 0.1 µM in [2] (setting [18]).
Take `CC(C)OC1Oc2ccccc2C[C@@H]1NC(=O)[C@H](Cc1ccccc1)NC(=O)N1CCN(C)CC1` (some centres unmarked) [Compound 41]: the Ki in data set [3] (apparent tight-binding inhibition constant, 25° C., read-out: Ki*) is over 5 µM; in data set [3] (setting [19]), over 5 µM. Moreover, the EC50 was over 20 µM in data set [4], 5 µM in data set [5] and 14 ± 0.9 µM in data set [2] (setting [18]). Moreover, the “transformation to 36 by CYPs” value in [6] was “no transformation to 36 was observed”.
On to `CN1CCN(C(=O)N[C@@H](Cc2ccccc2)C(=O)N[C@H](C=O)CCc2ccccc2)CC1` [Compound 52, 4-Methyl-N—((S)-1-oxo-1-(((S)-1-oxo-4-phenylbutan-2-yl)amino)-3-phenylpropan-2-yl)piperazine-1-carboxamide], for which the residence time in [3] worked out at 45 min. The Ki in data set [3] (setting [19]) was 0.0005 ± 0.0002 µM. Moreover, the “kobs of phenylhydrazone formation” value in [7] (0.2 mM compound) is reported as “(2.61±0.05)×10^−4 s^−1”. Moreover, the “free aldehyde by phenylhydrazine treatment” value in data set [7] (aqueous buffer, 2 hours) was “completely converted to phenylhydrazone”.
With `CN1CCN(C(=O)N[C@@H](Cc2ccccc2)C(=O)N[C@H](/C=C/S(=O)(=O)c2ccccc2)CCc2ccccc2)CC1` [Compound K11777, reference compound], the EC50 was 0.038 ± 0.009 µM in [8] (C2C12 murine cardiomyoblasts, listed as K777, read-out: EC50 T. cruzi-infected cardiomyoblasts); 0.7 µM in [8] (C2C12 murine cardiomyoblasts, read-out: EC50 T. cruzi-infected cardiomyoblasts); 2 µM and 2.3 µM and 1.7 µM in [9]; 70 µM in [10]; 10 to 100 µM in data set [14]; about 60 µM in data set [15] (read-out: T. cruzi axenic culture EC50). In [2] (setting [18]), the EC50 worked out at 0.09 ± 0.06 µM. For the same molecule, in [10] (concentration at which toxicity was or was not seen), the “toxicity in human dermal fibroblasts, concentration” value came out at 70 µM. In addition, the cytotoxic concentration (CC50) (usually the concentration giving 50% cytotoxicity) in data set [10] (human dermal fibroblasts, read-out: Human Cell Cytotoxicity CC50) is 60 to 100 µM; in data set [11], over 10 µM. Moreover, in data set [12], the “Rate of Thiolation, k” value is 0.00467 ± 0.0067 M⁻¹ s⁻¹. The IC50 (in general, the midpoint of a concentration-inhibition curve) in data set [13] is 0.0006 µM. Also, the “T. cruzi axenic culture EC50” value in data set [15] is reported as “poorly effective”.
On to `O=C(Cn1ccnc1[N+](=O)[O-])NCc1ccccc1` [benznidazole, reference compound], for which the EC50 in [8] (Trypanosoma cruzi, C2C12, read-out: EC50 T. cruzi-infected cardiomyoblasts) turned out to be 4 ± 2 µM. Moreover, the LD50 in data set [16] was 1.5 µM.
For `N=C(N)c1ccc(/N=N/Nc2ccc(C(=N)N)cc2)cc1` [diminazene], the EC50 in data set [17] was 0.99 µM.
